The experiment addresses T1, USP28 (USP28-5(1-1077)-TEV-6*His; LifeSensors) (Homo sapiens, UniProt Q96RU2).
T1 construct: construct USP28 (USP28-5(1-1077)-TEV-6*His; LifeSensors); TEV cleavage site (C); 6xHis (C); purchased LifeSensors
T1 sequence (Q96RU2 1-1077): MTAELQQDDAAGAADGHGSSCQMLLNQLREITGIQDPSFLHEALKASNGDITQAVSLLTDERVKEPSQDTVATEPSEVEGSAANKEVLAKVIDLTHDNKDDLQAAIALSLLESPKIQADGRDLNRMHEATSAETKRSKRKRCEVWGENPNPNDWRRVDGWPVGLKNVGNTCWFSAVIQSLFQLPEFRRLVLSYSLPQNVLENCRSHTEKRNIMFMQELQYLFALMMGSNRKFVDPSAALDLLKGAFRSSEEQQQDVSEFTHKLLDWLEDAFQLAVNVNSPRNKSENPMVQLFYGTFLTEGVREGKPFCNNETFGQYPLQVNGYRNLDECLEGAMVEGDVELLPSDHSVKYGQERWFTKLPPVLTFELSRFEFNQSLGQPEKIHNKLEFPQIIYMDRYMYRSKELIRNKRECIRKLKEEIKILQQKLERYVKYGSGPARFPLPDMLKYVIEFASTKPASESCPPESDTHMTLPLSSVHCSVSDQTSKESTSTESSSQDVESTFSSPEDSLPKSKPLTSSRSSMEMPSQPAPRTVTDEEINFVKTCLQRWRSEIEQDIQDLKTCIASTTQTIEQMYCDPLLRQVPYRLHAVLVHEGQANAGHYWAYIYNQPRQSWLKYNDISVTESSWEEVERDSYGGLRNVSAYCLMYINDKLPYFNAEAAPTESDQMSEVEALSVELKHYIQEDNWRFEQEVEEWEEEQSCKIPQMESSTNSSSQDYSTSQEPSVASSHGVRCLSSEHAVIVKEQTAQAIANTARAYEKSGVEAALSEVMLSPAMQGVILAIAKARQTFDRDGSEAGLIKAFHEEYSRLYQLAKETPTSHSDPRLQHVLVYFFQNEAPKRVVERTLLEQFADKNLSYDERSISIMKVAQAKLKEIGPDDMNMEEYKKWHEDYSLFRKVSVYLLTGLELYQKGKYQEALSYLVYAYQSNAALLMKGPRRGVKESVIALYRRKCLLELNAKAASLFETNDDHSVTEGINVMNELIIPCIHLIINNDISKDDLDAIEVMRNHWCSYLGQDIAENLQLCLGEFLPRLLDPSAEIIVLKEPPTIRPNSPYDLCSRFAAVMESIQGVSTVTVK
Nature of the experiment: Ubiquitin-Rhodamine 110 Assay for USP28 Activity, Example A-1(b). It is filed as biochemical. The conditions noted are these: Ubiquitin-Rhodamine 110 assay. The procedure: Example A-1(b): Biochemical Assay: Ubiquitin-Rhodamine 110 Assay for USP28 Activity
Each assay was performed in a final volume of 20 μL in assay buffer containing 20 mM Tris-HCl (pH 8.0, (1M Tris-HCl, pH 8.0 solution; Corning 46-031-CM)), 2 mM CaCl2) (1M Calcium Chloride solution; Sigma #21114) 2 mM BME (2-Mercaptoethanol; Sigma 63689-25ML-F), 0.01% Prionex ([…] filtered, Sigma #G-0411), and 0.01% Triton X-100. Stock compound solutions were stored at −20° C. as 10 mM in DMSO. Up to 1 month prior to the assay, 2 mM test compounds were pre-dispensed into assay plates (Black, low volume; Corning #3820) and frozen at −20° C. Prestamped assay plates were allowed to come to room temperature on the day of the assay. For the screen, 100 nL of 2 mM was pre-dispensed for a final screening concentration of 10 μM (DMSO(fc)=0.5%). […] Plates were incubated stacked for 90 minutes at room temperature before fluorescence was read on the Envision (Excitation at 485 nm and Emission at 535 nm; Perkin Elmer) or on the PheraSTAR (Excitation at 485 nm and Emission at 535 nm; BMG Labtech).
For follow-up studies, each assay was performed in a final volume of 15 μL in assay buffer containing 20 mM Tris-HCl (pH 8.0, (1M Tris-HCl, pH 8.0 solution; Corning 46-031-CM)), 3 mM BME (2-Mercaptoethanol; Sigma 63689-25ML-F), 0.03% BGG (0.22 μM filtered, Sigma, G7516-25G), and 0.01% Triton X-100 (Sigma, T9284-10L). Nanoliter quantities of either an 8-point or 10-point, 3-fold serial dilution in DMSO was pre-dispensed into assay plates (Perkin Elmer, ProxiPlate-384 F Plus, #) for a final test concentration of either 25 μM to 11 nM or 25 μM to 1.3 nM, respectively. Enzyme USP28, construct USP28 (USP28-5(1-1077)-TEV-6*His; LifeSensors) concentration and incubation times were optimized for the maximal signal-to-background while maintaining initial velocity conditions at a fixed substrate concentration. The final concentration of the enzyme in the assay was 75 pM. Final substrate (Ub-Rh110; Ubiquitin-Rhodamine 110, R&D Systems #U-555) concentration was 25 nM with [Ub-Rh110]<<Km. 5 μL of 2× enzyme was added to assay plates (pre-stamped with compound) preincubated with USP28 for 30 minutes and then 5 μL of 2×Ub-Rh110 was added to assay plates. Plates were incubated stacked for 20 minutes at room temperature before 5 μL of stop solution was added (final concentration of 10 mM citric acid (Sigma, 251275-500G)). Fluorescence was read on the Envision (Excitation at 485 nm and Emission at 535 nm; Perkin Elmer) or on the PheraSTAR (Excitation at 485 nm and Emission at 535 nm; BMG Labtech).
For assay formats Example A-1(a), A-1(b), and A-2, data were reported as percent inhibition compared with control wells based on the following equation: % inh=1−((FLU−AveLow)/(AveHigh−AveLow)) where FLU=measured Fluorescence, AveLow=average Fluorescence of no enzyme control (n=16), and AveHigh=average Fluorescence of DMSO control (n=16). IC50 values were determined by curve fitting of the standard 4 parameter logistic fitting algorithm included in the Activity Base software package: IDBS XE Designer Model 205. Data is fitted using the Levenburg Marquardt algorithm.

Take `Cc1cnc2c(N)c(C(=O)N[C@@H]3CCc4c(C#N)c(N5CCNCC5)cc(F)c4C3)sc2n1` [Example 14-11, (R)-7-amino-N-(5-cyano-8-fluoro-6-(piperazin-1-yl)-1,2,3,4-tetrahydronaphthalen-2-yl)-3-methylthieno[2,3-b]pyrazine-6-carboxamide]: where the note is “format Example A-1(b)”, the “USP28 A-1(b) IC50 range” value is “++ (0.2-2 μM)”.
Consider `Cc1ccc2c(N)c(C(=O)N[C@@H]3COc4cc(N5C[C@@H]6CNC[C@H]6C5)ccc4C3)sc2n1` [Example 42, 3-amino-((S)-7-((3aS,6aS)-hexahydropyrrolo[3,4-c]pyrrol-2(1H)-yl)chroman-3-yl)-6-methylthieno[2,3-b]pyridine-2-carboxamide], for which, for the setting “Example A-1(b)”, the “USP28 A-1(b) IC50 range” value is “++ (0.2-2 μM)”.
Take `Cc1cnc2c(N)c(C(=O)N[C@H]3CCc4cc(N5CCNCC(F)(F)C5)ccc4C3)sc2n1` [Example 454, (S)-7-amino-N-(6-(6,6-difluoro-1,4-diazepan-1-yl)-1,2,3,4-tetrahydronaphthalen-2-yl)-3-methylthieno[2,3-b]pyrazine-6-carboxamide]: the “USP28 A-1(b) IC50 range” value (Example A-1(b)) was “+++ (0.05-0.2 μM)”.
For the compound `O=C(N[C@H]1COc2cc(N3CCNCC3)ccc2C1)c1cnn2c(Br)cccc12` [Example 457, (R)-7-bromo-N-(7-(piperazin-1-yl)chroman-3-yl)pyrazolo[1,5-a]pyridine-3-carboxamide], the “USP28 A-1(b) IC50 range” value (Example A-1(b)) is “++ (0.2-2 μM)”.

For the origin of these results see patent publication US11524966B1 (Valo Early Discovery, Inc., priority 2017, dated 2022).
